# Tested on: MV-4-11 cells
# Assay: Gene expression microarray analysis (Affymetrix PrimeView) and GSEA
# Assay type: cell-based, human
# Design: RFU PODN (11730768_x_at) / Fold change /veh PODN (11730768_x_at) / RFU LINC00158 (11744669_a_at) / Fold change /veh LINC00158 (11744669_a_at) / RFU DUSP10 (11751237_a_at) / Fold change /veh DUSP10 (11751237_a_at) / RFU ID3 (11757404_x_at) / Fold change /veh ID3 (11757404_x_at) / RFU PLEKHG5 (11737974_s_at) / Fold change /veh PLEKHG5 (11737974_s_at) / RFU LRRC4B (11730491_at) / Fold change /veh LRRC4B (11730491_at) / RFU GIMAP4 (11747438_a_at) / Fold change /veh GIMAP4 (11747438_a_at) / RFU KRT8 (11758183_x_at) / Fold change /veh KRT8 (11758183_x_at) / RFU CNN1 (11734310_a_at) / Fold change /veh CNN1 (11734310_a_at) / RFU VPS37D (11726825_at) / Fold change /veh VPS37D (11726825_at) / RFU C10orf10 (11716522_x_at) / Fold change /veh C10orf10 (11716522_x_at) / RFU KIR2DL2 /// KIR2DL4 /// KIR2DL5A /// KIR2DL5B /// KIR2DS1 /// KIR2DS2 /// KIR2DS3 /// KIR2DS4 /// KIR3DL3 /// KIR3DL3 /// KIR3DS1 (11738374_at) / Fold change /veh KIR2DL2 /// KIR2DL4 /// KIR2DL5A /// KIR2DL5B /// KIR2DS1 /// KIR2DS2 /// KIR2DS3 /// KIR2DS4 /// KIR3DL3 /// KIR3DL3 /// KIR3DS1 (11738374_at) / RFU C1QL1 (11718748_at) / Fold change /veh C1QL1 (11718748_at) / RFU TMPRSS4 (11747572_a_at) / Fold change /veh TMPRSS4 (11747572_a_at) / RFU HAMP (11756126_x_at) / Fold change /veh HAMP (11756126_x_at) / RFU RNFT2 (11725882_a_at) / Fold change /veh RNFT2 (11725882_a_at) / RFU NR4A2 (11747474_a_at) / Fold change /veh NR4A2 (11747474_a_at) / RFU ABCC12 (11746883_a_at) / Fold change /veh ABCC12 (11746883_a_at) / RFU TMEM136 (11760407_x_at) / Fold change /veh TMEM136 (11760407_x_at) / RFU CLDN22 /// WWC2 (11732394_at) / Fold change /veh CLDN22 /// WWC2 (11732394_at) / RFU HLA-DPB1 (11760878_x_at) / Fold change /veh HLA-DPB1 (11760878_x_at) / RFU SPINT1 (11716480_a_at) / Fold change /veh SPINT1 (11716480_a_at) / RFU GAP43 (11754022_s_at) / Fold change /veh GAP43 (11754022_s_at) / RFU A4GNT (11735810_at) / Fold change /veh A4GNT (11735810_at) / RFU PRB3 (11715151_x_at) / Fold change /veh PRB3 (11715151_x_at) / RFU TUBB4B (11761932_at) / Fold change /veh TUBB4B (11761932_at) / RFU CAPN14 (11732068_a_at) / Fold change /veh CAPN14 (11732068_a_at) / RFU TMCC2 (11721928_a_at) / Fold change /veh TMCC2 (11721928_a_at) / RFU IRGQ (11745062_a_at) / Fold change /veh IRGQ (11745062_a_at) / RFU FAM174B (11720279_a_at) / Fold change /veh FAM174B (11720279_a_at) / RFU TMPRSS4 (11748680_a_at) / Fold change /veh TMPRSS4 (11748680_a_at) / RFU FAM212B (11763350_a_at) / Fold change /veh FAM212B (11763350_a_at) / RFU PLEKHG5 (11743358_a_at) / Fold change /veh PLEKHG5 (11743358_a_at) / RFU ZSCAN30 (11745921_a_at) / Fold change /veh ZSCAN30 (11745921_a_at) / RFU CMKLR1 (11741424_a_at) / Fold change /veh CMKLR1 (11741424_a_at) / RFU LOC101060620 /// MAPK8IP1 (11723275_at) / Fold change /veh LOC101060620 /// MAPK8IP1 (11723275_at) / RFU SPTSSB (11747773_x_at) / Fold change /veh SPTSSB (11747773_x_at) / RFU PRSS12 (11739890_at) / Fold change /veh PRSS12 (11739890_at) / RFU BIN1 (11741810_x_at) / Fold change /veh BIN1 (11741810_x_at) / RFU WNT11 (11732464_a_at) / Fold change /veh WNT11 (11732464_a_at) / RFU C10orf10 (11716521_a_at) / Fold change /veh C10orf10 (11716521_a_at) / RFU C5orf56 (11738089_at) / Fold change /veh C5orf56 (11738089_at) / RFU CYB561 (11721691_x_at) / Fold change /veh CYB561 (11721691_x_at) / RFU ANKRD19P (11752326_a_at) / Fold change /veh ANKRD19P (11752326_a_at) / RFU OR2T12 /// OR2T33 /// OR2T8 (11738714_s_at) / Fold change /veh OR2T12 /// OR2T33 /// OR2T8 (11738714_s_at) / RFU VCAN (11748164_a_at) / Fold change /veh VCAN (11748164_a_at) / RFU JSRP1 (11732532_at) / Fold change /veh JSRP1 (11732532_at) / RFU KRTAP10-11 (11738290_x_at) / Fold change /veh KRTAP10-11 (11738290_x_at) / RFU MYO3A (11730013_a_at) / Fold change /veh MYO3A (11730013_a_at) / RFU EBF3 (11725865_a_at) / Fold change /veh EBF3 (11725865_a_at) / RFU CAMK2N1 (11719241_x_at) / Fold change /veh CAMK2N1 (11719241_x_at) / RFU C5orf56 (11738088_a_at) / Fold change /veh C5orf56 (11738088_a_at) / RFU OLFML3 (11715873_a_at) / Fold change /veh OLFML3 (11715873_a_at) / RFU LOC100653217 /// NTM (11731650_a_at) / Fold change /veh LOC100653217 /// NTM (11731650_a_at) / RFU MAPK11 (11762145_a_at) / Fold change /veh MAPK11 (11762145_a_at) / RFU FIZ1 (11724087_x_at) / Fold change /veh FIZ1 (11724087_x_at) / RFU OASL (11726364_x_at) / Fold change /veh OASL (11726364_x_at) / RFU SOX15 (11748057_x_at) / Fold change /veh SOX15 (11748057_x_at) / RFU CD79A (11719716_a_at) / Fold change /veh CD79A (11719716_a_at) / RFU HIST1H1D (11736915_at) / Fold change /veh HIST1H1D (11736915_at) / RFU CASKIN2 (11723855_a_at) / Fold change /veh CASKIN2 (11723855_a_at) / RFU LOC730098 (11760151_x_at) / Fold change /veh LOC730098 (11760151_x_at) / RFU OR4N2 (11742367_at) / Fold change /veh OR4N2 (11742367_at) / RFU PRRT2 (11749266_a_at) / Fold change /veh PRRT2 (11749266_a_at) / RFU SNX32 (11753110_a_at) / Fold change /veh SNX32 (11753110_a_at) / RFU CDHR5 (11726645_a_at) / Fold change /veh CDHR5 (11726645_a_at) / RFU RCAN1 (11760418_a_at) / Fold change /veh RCAN1 (11760418_a_at) / RFU FAM167A (11723789_a_at) / Fold change /veh FAM167A (11723789_a_at) / RFU FAM26E (11764081_at) / Fold change /veh FAM26E (11764081_at) / RFU ISYNA1 (11749810_s_at) / Fold change /veh ISYNA1 (11749810_s_at) / RFU ACY1 (11761880_at) / Fold change /veh ACY1 (11761880_at) / RFU 11764098_at / Fold change /veh 11764098_at / RFU SAMD14 (11745864_x_at) / Fold change /veh SAMD14 (11745864_x_at) / RFU NPB (11741838_a_at) / Fold change /veh NPB (11741838_a_at) / RFU TMPRSS6 (11731388_a_at) / Fold change /veh TMPRSS6 (11731388_a_at) / RFU KRTAP10-2 (11738614_at) / Fold change /veh KRTAP10-2 (11738614_at) / RFU ARHGAP8 /// PRR5-ARHGAP8 (11727945_x_at) / Fold change /veh ARHGAP8 /// PRR5-ARHGAP8 (11727945_x_at) / RFU KRTAP5-7 /// NADSYN1 (11734609_at) / Fold change /veh KRTAP5-7 /// NADSYN1 (11734609_at) / RFU RASL12 (11751679_a_at) / Fold change /veh RASL12 (11751679_a_at) / RFU CDKN2B (11736163_a_at) / Fold change /veh CDKN2B (11736163_a_at) / RFU PRF1 (11729649_at) / Fold change /veh PRF1 (11729649_at) / RFU, ZNF638 /// ZNF638-IT1 / Fold change vs veh, ZNF638 /// ZNF638-IT1 / RFU, PANK3 / Fold change vs veh, PANK3 / RFU, SH3YL1 / Fold change vs veh, SH3YL1 / RFU, ZEB2 / Fold change vs veh, ZEB2 / RFU, NRIP1 / Fold change vs veh, NRIP1 / RFU, PTTG1IP / Fold change vs veh, PTTG1IP / RFU, CAPN2 / Fold change vs veh, CAPN2 / RFU, MED14 / Fold change vs veh, MED14 / RFU, SNORA58 / Fold change vs veh, SNORA58 / RFU, C1orf63 / Fold change vs veh, C1orf63 / RFU, LRRFIP1 / Fold change vs veh, LRRFIP1 / RFU, NDUFAF7 / Fold change vs veh, NDUFAF7 / RFU, SLC12A2 / Fold change vs veh, SLC12A2 / RFU, IBTK / Fold change vs veh, IBTK / RFU, ESF1 / Fold change vs veh, ESF1 / Fold change vs veh, TMEM50B / RFU, TAOK1 / Fold change vs veh, TAOK1 / RFU, ACBD3 / Fold change vs veh, ACBD3 / RFU, TMA16 / Fold change vs veh, TMA16 / RFU, RWDD3 / Fold change vs veh, RWDD3 / RFU, BCAT1 / Fold change vs veh, BCAT1 / RFU, EDEM3 / Fold change vs veh, EDEM3 / RFU, TMEM33 / Fold change vs veh, TMEM33 / RFU, WDR75 / Fold change vs veh, WDR75 / RFU, AHCTF1 / Fold change vs veh, AHCTF1 / RFU, TFRC / Fold change vs veh, TFRC / RFU, ZDHHC17 / Fold change vs veh, ZDHHC17 / RFU, NOM1 / Fold change vs veh, NOM1 / RFU, ARL8B / Fold change vs veh, ARL8B / RFU, ZBTB11 / Fold change vs veh, ZBTB11 / RFU, TAMM41 / Fold change vs veh, TAMM41 / RFU, KIAA1704 /// LOC100996395 / Fold change vs veh, KIAA1704 /// LOC100996395 / RFU, ING1 / Fold change vs veh, ING1 / RFU, TRMT61B / Fold change vs veh, TRMT61B / RFU, FUBP3 / Fold change vs veh, FUBP3 / RFU, TP53 / Fold change vs veh, TP53 / RFU, TNKS2 / Fold change vs veh, TNKS2 / RFU, ZFP14 / Fold change vs veh, ZFP14 / RFU, ACTR2 / Fold change vs veh, ACTR2 / RFU, PPP3R1 / Fold change vs veh, PPP3R1 / RFU, PIK3R1 / Fold change vs veh, PIK3R1 / RFU, HNRNPA1 / Fold change vs veh, HNRNPA1 / RFU, RNF170 / Fold change vs veh, RNF170 / RFU, ZNF28 / Fold change vs veh, ZNF28 / RFU, RNGTT / Fold change vs veh, RNGTT / RFU, OGT / Fold change vs veh, OGT / RFU, BRD1 / Fold change vs veh, BRD1 / RFU, MARS / Fold change vs veh, MARS / RFU, ZNF655 / Fold change vs veh, ZNF655 / RFU, FAHD1 / Fold change vs veh, FAHD1 / RFU, BDP1 / Fold change vs veh, BDP1 / RFU, LRRCC1 / Fold change vs veh, LRRCC1 / RFU, ARID1A / Fold change vs veh, ARID1A / RFU, ZNF146 / Fold change vs veh, ZNF146 / RFU, ZNF330 / Fold change vs veh, ZNF330 / RFU, GPN3 / Fold change vs veh, GPN3 / RFU, C9orf123 / Fold change vs veh, C9orf123 / RFU, N4BP2L2 / Fold change vs veh, N4BP2L2 / RFU, ARFIP1 / Fold change vs veh, ARFIP1 / RFU, FAM179B / Fold change vs veh, FAM179B / RFU, BCL10 / Fold change vs veh, BCL10 / RFU, UHRF1BP1L / Fold change vs veh, UHRF1BP1L / RFU, BET1 / Fold change vs veh, BET1 / RFU, CNOT2 / Fold change vs veh, CNOT2 / RFU, ZNF268 / Fold change vs veh, ZNF268 / Fold change vs veh, ZNF507 / RFU, DGCR2 / Fold change vs veh, DGCR2 / RFU, WDSUB1 / Fold change vs veh, WDSUB1 / Fold change vs veh, HSP90B1 /// MIR3652 / RFU, ADSS / Fold change vs veh, ADSS / RFU, GK / Fold change vs veh, GK / RFU, ZNF148 / Fold change vs veh, ZNF148 / RFU, TAF9 / Fold change vs veh, TAF9 / RFU, SLC1A5 / Fold change vs veh, SLC1A5 / RFU, SLMO2 / Fold change vs veh, SLMO2 / RFU, ABCC4 / Fold change vs veh, ABCC4 / RFU, LOC101060439 /// RAP1B / Fold change vs veh, LOC101060439 /// RAP1B / RFU, RFX7 / Fold change vs veh, RFX7 / RFU, GTPBP10 / Fold change vs veh, GTPBP10 / RFU, CNEP1R1 / Fold change vs veh, CNEP1R1 / RFU, BIVM-ERCC5 /// ERCC5 / Fold change vs veh, BIVM-ERCC5 /// ERCC5 / RFU, ILF3 / Fold change vs veh, ILF3 / RFU 11762660_at / Fold change /veh 11762660_at / RFU VCAN (11757783_s_at) / Fold change /veh VCAN (11757783_s_at) / RFU DDX43 (11728927_at) / Fold change /veh DDX43 (11728927_at) / RFU KRT8 (11758188_x_at) / Fold change /veh KRT8 (11758188_x_at) / RFU NKD1 (11759106_at) / Fold change /veh NKD1 (11759106_at) / RFU SRD5A1 (11742802_a_at) / Fold change /veh SRD5A1 (11742802_a_at) / RFU TPSAB1 /// TPSB2 (11721975_s_at) / Fold change /veh TPSAB1 /// TPSB2 (11721975_s_at) / RFU GSTM3 (11746129_a_at) / Fold change /veh GSTM3 (11746129_a_at) / RFU IL23R (11737362_x_at) / Fold change /veh IL23R (11737362_x_at) / RFU TMEM51 (11727254_a_at) / Fold change /veh TMEM51 (11727254_a_at) / RFU PIWIL2 (11732686_x_at) / Fold change /veh PIWIL2 (11732686_x_at) / RFU ORM1 (11744905_x_at) / Fold change /veh ORM1 (11744905_x_at) / RFU CCDC152 (11743942_at) / Fold change /veh CCDC152 (11743942_at) / RFU ECM1 (11717891_a_at) / Fold change /veh ECM1 (11717891_a_at) / RFU IL23R (11748794_a_at) / Fold change /veh IL23R (11748794_a_at) / RFU TNFAIP8L3 (11732012_x_at) / Fold change /veh TNFAIP8L3 (11732012_x_at) / RFU MBOAT4 (11741988_at) / Fold change /veh MBOAT4 (11741988_at) / RFU 11764193_at / Fold change /veh 11764193_at / RFU TMEM53 (11763286_at) / Fold change /veh TMEM53 (11763286_at) / RFU MAGEB2 (11727129_at) / Fold change /veh MAGEB2 (11727129_at) / RFU TMEM200A (11744735_a_at) / Fold change /veh TMEM200A (11744735_a_at) / RFU CCDC152 (11751479_a_at) / Fold change /veh CCDC152 (11751479_a_at) / RFU FAM211A (11726209_a_at) / Fold change /veh FAM211A (11726209_a_at) / RFU RGS16 (11746705_a_at) / Fold change /veh RGS16 (11746705_a_at) / RFU VCAN (11755009_s_at) / Fold change /veh VCAN (11755009_s_at) / RFU RHOB (11743442_s_at) / Fold change /veh RHOB (11743442_s_at) / RFU RGS16 (11720943_a_at) / Fold change /veh RGS16 (11720943_a_at) / RFU RGS16 (11720944_at) / Fold change /veh RGS16 (11720944_at) / RFU, VPS4B / Fold change vs veh, VPS4B / RFU, CREB1 / Fold change vs veh, CREB1 / RFU, DNAJC13 / Fold change vs veh, DNAJC13 / RFU, GNAQ / Fold change vs veh, GNAQ / RFU, CDK5R1 / Fold change vs veh, CDK5R1 / RFU, ZRANB3 / Fold change vs veh, ZRANB3 / RFU, CUL4A / Fold change vs veh, CUL4A / RFU, CCNY / Fold change vs veh, CCNY / RFU, UFL1 / Fold change vs veh, UFL1 / RFU, COG3 / Fold change vs veh, COG3 / RFU, DIAPH2 / Fold change vs veh, DIAPH2 / RFU, SKA2 / Fold change vs veh, SKA2 / RFU, AFF3 / Fold change vs veh, AFF3 / RFU, LMF1 / Fold change vs veh, LMF1 / RFU, IPO11 / Fold change vs veh, IPO11 / RFU, DFFB / Fold change vs veh, DFFB / RFU, FOXP1 / Fold change vs veh, FOXP1 / RFU, CARD8 / Fold change vs veh, CARD8 / RFU, STRN3 / Fold change vs veh, STRN3 / RFU, ADK / Fold change vs veh, ADK / RFU, RASSF2 / Fold change vs veh, RASSF2 / RFU, WIPF1 / Fold change vs veh, WIPF1 / RFU, LARP1B / Fold change vs veh, LARP1B / RFU, RASA1 / Fold change vs veh, RASA1 / RFU, RB1 / Fold change vs veh, RB1 / RFU, PPFIA1 / Fold change vs veh, PPFIA1 / RFU, MAT2A / Fold change vs veh, MAT2A / RFU, CCT5 / Fold change vs veh, CCT5 / RFU, WDR92 / Fold change vs veh, WDR92 / RFU, CUX1 / Fold change vs veh, CUX1 / RFU, TTC7A / Fold change vs veh, TTC7A / RFU, TMEM135 / Fold change vs veh, TMEM135 / RFU, DEPTOR / Fold change vs veh, DEPTOR / RFU, CPM / Fold change vs veh, CPM / RFU, DNAJB6 / Fold change vs veh, DNAJB6 / RFU, CACNA2D3 / Fold change vs veh, CACNA2D3 / RFU, DTX4 / Fold change vs veh, DTX4 / RFU, TFCP2 / Fold change vs veh, TFCP2 / RFU, GMCL1 /// GMCL1P1 / Fold change vs veh, GMCL1 /// GMCL1P1 / RFU, AEBP2 / Fold change vs veh, AEBP2 / RFU, SNHG1 /// SNORD22 /// SNORD25 /// SNORD26 /// SNORD27 /// SNORD28 /// SNORD29 /// SNORD31 / Fold change vs veh, SNHG1 /// SNORD22 /// SNORD25 /// SNORD26 /// SNORD27 /// SNORD28 /// SNORD29 /// SNORD31 / Fold change (Aza/veh), C12orf56 (ProbeSet 11735607_a_at) / Fold change (ACY-1035/veh), C12orf56 (ProbeSet 11735607_a_at) / Fold change (Aza/veh), FGFR1OP (ProbeSet 11751329_s_at) / Fold change (ACY-1035/veh), FGFR1OP (ProbeSet 11751329_s_at) / Fold change (Aza/veh), VPS36 (ProbeSet 11739960_a_at) / Fold change (ACY-1035/veh), VPS36 (ProbeSet 11739960_a_at) / RFU SYPL1 (11715823_x_at) / Fold change /veh SYPL1 (11715823_x_at) / RFU IGFBP7 (11715501_s_at) / Fold change /veh IGFBP7 (11715501_s_at) / RFU REEP3 (11722064_at) / Fold change /veh REEP3 (11722064_at) / RFU IGLL1 (11728026_x_at) / Fold change /veh IGLL1 (11728026_x_at): dose or concentration left out as unconfirmed
# Settings: MV-4-11 cells, 48 hours
compound,measurement,value
Nc1ccc(-c2cccs2)cc1NC(=O)c1ccc2c(c1)cc(C1CC1)n2CCN1CCOCC1 [ACY-1035],RFU TMCC2 (11721928_a_at),13.59 RFU

# — paper PMC5218480 (PLoS ONE, 2017)
